EC50 and IC50 data for 23 molecules are collected here from patent US9315475B2 (MERCK SHARP & DOHME CORP., priority 2011, dated 2016).

A word on the EC50: it is the concentration at which the effect is half-maximal. A lower EC50 goes with greater potency.

In one test the test system is HIV-1 (H9IIIB strain). As to the kind of experiment: Antiviral acute infection assay in cell culture (Spread). Type of test: cell-based. Conditions: Human immunodeficiency virus 1, T-lymphoid, HIV-1 H9IIIB infection of MT-4 human T-lymphoid cells in 10% FBS; mean of at least two independent experiments. The text has this:
Antiviral Assays in Cell Culture (“Spread”)
Acute Infection Assay (“Spread”) data were generated using HIV-1 (H9IIIB strain) infection of MT-4 human T-lymphoid cells in 10% FBS, and according to the methods disclosed by J. P. Vacca et al, “L-735,524: An orally bioavailable human immunodeficiency virus type 1 protease inhibitor,” Proc. Natl. Acad. Sci. USA, Vol. 91, pp. 4096-4100 (April 1994).
`COC(=O)N[C@H](C(=O)Nc1cccc(F)c1CC[C@@H]1CN[C@H](COC(=O)NCC(F)(F)F)CO1)C(c1ccc(Cl)cc1)c1ccc(Cl)cc1` [Example 108, 4-Chloro-β-(4-chlorophenyl)-N-(3-fluoro-2-{2-[(2R,5S)-5-({[(2,2,2-trifluoroethyl)carbamoyl]oxy}methyl)morpholin-2-yl]ethyl}phenyl)-Nα-(methoxycarbonyl)-L-phenylalaninamide] registered an EC50 of 0.86 µM.

`O=C(CC(c1ccc(F)cc1)c1ccc(F)cc1)Nc1cncc(F)c1CC[C@@H]1CN[C@H](COC(=O)NCCOc2ccccc2)CO1` [Example 170, {(3S,6R)-6-[2-(3-{[3,3-bis(4-fluoro-phenyl)propanoyl]amino}-5-fluoropyridin-4-yl)ethyl]morpholin-3-yl}methyl (2-phenoxyethyl)carbamate] displayed a half-maximal effective concentration (EC50) of 0.061 µM.

As to `CCc1nc(CNC(=O)OC[C@@H]2CO[C@H](CCc3c(F)cncc3NC(=O)CC(c3ccc(F)cc3)c3ccc(F)cc3)CN2)no1` [Example 174, {(3S,6R)-6-[2-(3-{[3,3-bis(4-fluoro-phenyl)propanoyl]amino}-5-fluoropyridin-4-yl)ethyl]morpholin-3-yl}methyl [(5-ethyl-1,2,4-oxadiazol-3-yl)methyl]carbamate], the concentration for a half-maximal effect (EC50) amounted to 0.12 µM.

The target in the next test is T1, wildtype HIV-1 protease (Human immunodeficiency virus type 1 group M subtype B, UniProt P04585).
T1 construct: the wildtype HIV-1 protease (which was expressed in Escherichia coli); made in house; host or cells: Escherichia coli
As to the kind of experiment: Assay for inhibition of microbial expressed HIV protease (Pepcleav). Type of test: biochemical. Conditions: wild type HIV-1 protease expressed in E. coli, peptide substrate, pH 5.5; mean of at least two independent experiments; read-out: Pepcleav. Put shortly: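 E. coli-expressed wild-type HIV-1 protease (20 pM) preincubated 30 min at room temperature with inhibitor in pH 5.5 sodium acetate/NaCl/BSA buffer, then 400 μM Val-Ser-Gln-Asn-(βnaphthyl)Ala-Pro-Ile-Val added for 1 h at 30 °C. Quenched with formic acid; product quantified by LC-MS/MS peak area, indinavir internal standard.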
In the case of `N[C@H](C(=O)Nc1cccc(F)c1CC[C@@H]1CN[C@H](COC(=O)NCC(F)(F)F)CO1)[C@H](c1ccccc1)c1ccc(Oc2ccccc2)cc1` [Example 227, (βR)-N-(3-fluoro-2-{2-[(2R,5S)-5-( {[(2,2,2-trifluoroethyl)carbamoyl]oxy}methyl)morpholin-2-yl]ethyl}phenyl)-O,β-diphenyl-L-tyrosinamide], the IC50 turned out to be 0.34 µM.

In the case of `COC(=O)N[C@H](C(=O)Nc1ccccc1CC[C@@H]1CN[C@H](COC(=O)NCC(F)(F)F)CO1)C(c1ccccc1)c1ccccc1` [Example 17, methyl N-[(1S)-1-benzhydryl-2-oxo-2-[[2-[2-[(2R,5S)-5-(2,2,2-trifluoroethylcarbamoyloxymethyl)morpholin-2-yl]ethyl]phenyl]amino]ethyl]carbamate], the IC50 came to 0.027 µM.

In the case of `COC(=O)N[C@H](C(=O)Nc1ccccc1CC[C@@H]1CN[C@H](CSc2ccccc2)CO1)C(c1ccccc1)c1ccccc1` [Example 62, Nα-(methoxycarbonyl)-β-phenyl-N-[2-(2-{(2R,5S)-5-[(phenylsulfanyl)methyl]morpholin-2-yl}ethyl)phenyl]-L-phenylalaninamide], the IC50 worked out at 0.13 µM.

On to `N[C@H](C(=O)Nc1cncc(F)c1CC[C@@H]1CN[C@H](COC(=O)NCCN2CCCC2)CO1)C(c1ccc(F)cc1)c1ccc(F)cc1` [Example 233, 4-fluoro-β-(4-fluorophenyl)-N-(5-fluoro-4-{2-[(2R,5S)-5-({[(2-pyrrolidin-1-ylethyl)carbamoyl]oxy}methyl)morpholin-2-yl]ethyl}pyridin-3-yl)-L-phenylalaninamide], for which the IC50 came out at 0.11 µM.

As for `COC(=O)N[C@H](C(=O)Nc1ccccc1CC(F)[C@@H]1CN[C@H](COC(=O)NCc2ccc(F)cc2)CO1)C(c1ccccc1)c1ccccc1` (stereo partly drawn) [Example 78, N-(2-{2-fluoro-2-[(2S,5S)-5-({[(4-fluorobenzyl)carbamoyl]oxy}methyl)morpholin-2-yl]ethyl}phenyl)-Nα-(methoxycarbonyl)-β-phenyl-L-phenylalaninamide], the IC50 was 0.059 µM.

`COC(=O)N[C@H](C(=O)Nc1ccccc1CC[C@@H]1CN[C@H](CNC(=O)Nc2cccnn2)CO1)C(c1ccccc1)c1ccccc1` [Example 41, methyl N-[(1S)-1-benzhydryl-2-oxo-2-[[2-[2-[(2R,5R)-5-[(pyridazin-3-ylcarbamoyl-amino)methyl]morpholin-2-yl]ethyl]phenyl]amino]ethyl] carbamate]: the IC50 is 0.0029 µM.

Turning to `CCNC(=O)[C@@H]1CO[C@H](CCc2ccccc2NC(=O)[C@@H](NC(=O)OC)C(c2ccccc2)c2ccccc2)CN1` [Example 3, N-(2-{2-[(2R,5S)-5-(ethylcarbamoyl)morpholin-2-yl]ethyl}phenyl)-Nα-(methoxycarbonyl)-β-phenyl-L-phenylalaninamide], the IC50 is 0.015 µM.

As to `COC(=O)N[C@H](C(=O)Nc1ccccc1CC[C@@H]1CN[C@H](CNS(=O)(=O)c2ccccc2)CO1)C(c1ccccc1)c1ccccc1` [Example 44, Nα-(methoxycarbonyl)-β-phenyl-N-(2-{2-[(2R,5R)-5-{[(phenylsulfonyl)amino]methyl}morpholin-2-yl]ethyl}phenyl)-L-phenylalaninamide], the IC50 worked out at 0.026 µM.

Turning to `COC(=O)N[C@H](C(=O)Nc1ccccc1CC[C@@H]1CN[C@H](C(=O)NS(=O)(=O)c2ccccc2)CO1)C(c1ccccc1)c1ccccc1` [Example 10, Nα-(methoxycarbonyl)-β-phenyl-N-[2-(2-{(2R,5S)-5-[(phenylsulfonyl)carbamoyl]morpholin-2-yl}ethyl)phenyl]-L-phenylalaninamide], the IC50 was determined as 0.017 µM.

For `COC(=O)N[C@H](C(=O)Nc1ccccc1CC[C@@H]1CN[C@H](CCc2ccccc2NS(=O)(=O)Cc2ccccc2)CO1)C(c1ccccc1)c1ccccc1` [Example 73, N-(2-{2-[(2R,5R)-5-(2-{2-[(benzylsulfonyl)amino]phenyl}ethyl)morpholin-2-yl]ethyl}phenyl)-Nα-(methoxycarbonyl)-β-phenyl-L-phenylalaninamide], the IC50 was 0.021 µM.

As to `COC(=O)NCC(=O)Nc1ccccc1CC[C@@H]1CO[C@H](CCc2ccccc2NC(=O)[C@@H](NC(=O)OC)C(c2ccccc2)c2ccccc2)CN1` [Example 69, methyl N-[(1S)-1-benzhydryl-2-[[2-[2-[(2R,5R)-5-[2-[2-[[2-(methoxycarbonylamino)acetyl]amino]phenyl]ethyl]morpholin-2-yl]ethyl]phenyl]amino]-2-oxo-ethyl]carbamate], the IC50 worked out at 0.0034 µM.

As for `COC(=O)N[C@H](C(=O)Nc1ccccc1CC[C@@H]1CN[C@H](C(=O)NC(C)(C)C)CO1)C(c1ccccc1)c1ccccc1` [Example 8, N-(2-{2-[(2R,5S)-5-(tert-butylcarbamoyl)morpholin-2-yl]ethyl}phenyl)-Nα-(methoxycarbonyl)-β-phenyl-L-phenylalaninamide], the IC50 turned out to be 0.041 µM.

With `COC(=O)Nc1ccccc1CC[C@@H]1CO[C@H](CCc2ccccc2NC(=O)[C@@H](NC(=O)OC)C(c2ccccc2)c2ccccc2)CN1` [Example 76, methyl N-[(1S)-1-benzhydryl-2-[[2-[2-[(2R,5R)-5-[2-[2-(methoxy-carbonylamino)phenyl]ethyl]morpholin-2-yl]ethyl]phenyl]amino]-2-oxo-ethyl]carbamate], the IC50 worked out at 0.052 µM.

Regarding `COC(=O)N[C@H](C(=O)Nc1cncnc1CC[C@@H]1CN[C@H](COC(=O)NCc2ccc(F)cc2)CO1)C(c1ccccc1)c1ccccc1` [Example 36, N-(4-{2-[(2R,5S)-5-({[(4-fluorobenzyl)carbamoyl]oxy}methyl)morpholin-2-yl]ethyl}pyrimidin-5-yl)-Nα-(methoxycarbonyl)-β-phenyl-L-phenylalaninamide], the IC50 amounted to 0.024 µM.

Consider `COC(=O)N[C@H](C(=O)Nc1ccccc1CC[C@@H]1CN[C@H](COC(=O)NC2CCc3ccccc32)CO1)C(c1ccccc1)c1ccccc1` (stereo partly drawn) [Example 15, N-(2-{2-[(2R,5S)-5-{[(2,3-dihydro-1H-inden-1-ylcarbamoyl)oxy]methyl}morpholin-2-yl]ethyl}phenyl)-Nα-(methoxycarbonyl)-β-phenyl-L-phenylalaninamide], for which the IC50 was found to be 0.0041 µM.

For the molecule `COC(=O)N[C@H](C(=O)Nc1ccccc1CC[C@@H]1CN[C@H](C(=O)Nc2ccccc2)CO1)C(c1ccccc1)c1ccccc1` [Example 7, Nα-(methoxycarbonyl)-β-phenyl-N-(2-{2-[(2R,5S)-5-(phenylcarbamoyl)morpholin-2-yl]ethyl}phenyl)-L-phenylalaninamide], the IC50 turned out to be 0.0008 µM.

Regarding `COC(=O)N[C@H](C(=O)Nc1ccccc1CC[C@@H]1CN[C@H](CNC(=O)c2ccccc2)CO1)C(c1ccccc1)c1ccccc1` [Example 52, Nα-(methoxycarbonyl)-β-phenyl-N-(2-{2-[(2R,5R)-5-{[(phenylcarbonyl)amino]methyl}morpholin-2-yl]ethyl}phenyl)-L-phenylalaninamide], the IC50 came out at 0.096 µM.

Take `COC(=O)N[C@H](C(=O)Nc1ccccc1CC[C@@H]1CN[C@H](COC(=O)NCc2ccc(F)cc2)CO1)C(c1ccccc1)c1ccccc1` [Example 16, methyl N-[(1S)-1-benzhydryl-2-[[2-[2-[(2R,5S)-5-[(4-fluorophenyl)methylcarbamoyloxymethyl]morpholin-2-yl]ethyl]phenyl]amino]-2-oxo-ethyl]carbamate]: the IC50 turned out to be 0.0059 µM.

As for `COC(=O)N[C@H](C(=O)Nc1ccccc1CC[C@@H]1CN[C@H](COC(=O)NCC(F)F)CO1)C(c1ccccc1)c1ccccc1` [Example 24, methyl N-[(1S)-1-benzhydryl-2-[[2-[2-[(2R,5S)-5-(2,2-difluoroethylcarbamoyloxymethyl)morpholin-2-yl]ethyl]phenyl]amino]-2-oxo-ethyl]carbamate], the IC50 came to 0.085 µM.

As for `N[C@H](C(=O)Nc1cccc(F)c1CC[C@@H]1CN[C@H](COC(=O)NCc2ccncc2)CO1)C(c1ccc(F)cc1)c1ccc(F)cc1` [Example 198, 4-fluoro-β-(4-fluorophenyl)-N-(3-fluoro-2-{2-[(2R,5S)-5-({[(pyridin-4-ylmethyl)carbamoyl]oxy}methyl)morpholin-2-yl]ethyl}phenyl)-L-phenylalaninamide], the IC50 turned out to be 0.044 µM.
